Assay results from US20240190880A1 (THE REGENTS OF THE UNIVERSITY OF MICHIGAN, priority 2021, published 2024).

Molecular target: T1, ER (Homo sapiens, UniProt P03372)
T1 construct: host or cells: T47D and MCF7 human breast cancer cells
T1 sequence (P03372 1-595): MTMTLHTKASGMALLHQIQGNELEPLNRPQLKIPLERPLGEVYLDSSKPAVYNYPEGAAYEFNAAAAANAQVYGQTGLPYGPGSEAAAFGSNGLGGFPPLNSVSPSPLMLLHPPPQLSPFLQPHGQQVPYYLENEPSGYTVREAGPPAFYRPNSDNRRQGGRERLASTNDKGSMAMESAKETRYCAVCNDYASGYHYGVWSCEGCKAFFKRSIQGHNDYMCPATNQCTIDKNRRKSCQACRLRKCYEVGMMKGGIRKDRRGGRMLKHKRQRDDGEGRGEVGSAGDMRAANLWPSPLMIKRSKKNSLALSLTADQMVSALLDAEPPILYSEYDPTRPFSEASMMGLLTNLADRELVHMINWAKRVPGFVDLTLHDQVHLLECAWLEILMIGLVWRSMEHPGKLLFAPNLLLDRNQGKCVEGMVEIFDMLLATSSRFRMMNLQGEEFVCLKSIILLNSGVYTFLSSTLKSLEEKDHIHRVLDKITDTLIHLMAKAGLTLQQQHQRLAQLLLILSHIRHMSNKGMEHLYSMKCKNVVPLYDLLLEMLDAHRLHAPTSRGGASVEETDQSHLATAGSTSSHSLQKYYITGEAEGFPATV
Experiment: ER degradation activity, in-cell western blot analysis in T47D cells
Assay type: cell-based
Conditions: 16 hours, Table A does not say which cell line (T47D or MCF7), read-out: Potency (DC50)
Summary of the method: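 T47D cells cultured in DMEM with 10% FBS, treated with compounds (final 0.5% DMSO) for 16 h. ER level measured by in-cell western with anti-rabbit-680/anti-mouse-800 near-infrared detection. Relative ER percentage calculated against untreated and DMSO-treated wells set as 100%.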

SMILES	DC50 [nM]
O=C1CCC(N2C(=O)c3cc4c(cc3C2=O)CN(CC(=O)N2CC3(CCN(c5ccc(C(=C(CCCl)c6ccccc6)c6ccc(O)cc6)cc5)CC3)C2)C4)C(=O)N1 (stereo not drawn) [E 187, 6-(2-(7-(4-(4-chloro-1-(4-hydroxyphenyl)-2-phenylbut-1-en-1-yl)phenyl)-2,7-diazaspiro[3.5]nonan-2-yl)-2-oxoethyl)-2-(2,6-dioxopiperidin-3-yl)-6,7-dihydropyrrolo[3,4-f]isoindole-1,3(2H,5H)-dione]	10 to 100
CCC(=C(c1ccc(O)cc1)c1ccc(N2CCC3(CCN(C(=O)CN4Cc5cc6c(cc5C4)C(=O)N(C4CCC(=O)NC4=O)C6=O)CC3)CC2)cc1)c1ccccc1 (stereo not drawn) [E 188, 2-(2,6-dioxopiperidin-3-yl)-6-(2-(9-(4-(1-(4-hydroxyphenyl)-2-phenylbut-1-en-1-yl)phenyl)-3,9-diazaspiro[5.5]undecan-3-yl)-2-oxoethyl)-6,7-dihydropyrrolo[3,4-f]isoindole-1,3(2H,5H)-dione]	10 to 100
O=C1CCC(N2C(=O)c3cc4c(cc3C2=O)CN(CC(=O)N2CCC3(CC2)CCN(c2ccc(C(=C(CCCl)c5ccccc5)c5ccc(O)cc5)cc2)C3)C4)C(=O)N1 (stereo not drawn) [E 190, 6-(2-(2-(4-(4-chloro-1-(4-hydroxyphenyl)-2-phenylbut-1-en-1-yl)phenyl)-2,8-diazaspiro[4.5]decan-8-yl)-2-oxoethyl)-2-(2,6-dioxopiperidin-3-yl)-6,7-dihydropyrrolo[3,4-f]isoindole-1,3(2H,5H)-dione]	10 to 100
O=C1CCC(N2C(=O)c3cc4c(cc3C2=O)CN(C(=O)CN2CCC3(CC2)CCN(c2ccc(C(=C(CCCl)c5ccccc5)c5ccc(O)cc5)cc2)CC3)C4)C(=O)N1 (stereo not drawn) [E 195, 6-(2-(9-(4-(4-chloro-1-(4-hydroxyphenyl)-2-phenylbut-1-en-1-yl)phenyl)-3,9-diazaspiro[5.5]undecan-3-yl)acetyl)-2-(2,6-dioxopiperidin-3-yl)-6,7-dihydropyrrolo[3,4-f]isoindole-1,3(2H,5H)-dione]	10 to 100
O=C1CCC(N2C(=O)c3cc4c(cc3C2=O)CN(CC(=O)N2CCC3(CC2)CCN(c2ccc(C(=C(CCCl)c5ccc(F)cc5)c5ccc(O)cc5)cc2)CC3)C4)C(=O)N1 (stereo not drawn) [E 196, 6-(2-(9-(4-(4-chloro-2-(4-fluorophenyl)-1-(4-hydroxyphenyl)but-1-en-1-yl)phenyl)-3,9-diazaspiro[5.5]undecan-3-yl)-2-oxoethyl)-2-(2,6-dioxopiperidin-3-yl)-6,7-dihydropyrrolo[3,4-f]isoindole-1,3(2H,5H)-dione]	10 to 100
O=C1CCC(N2C(=O)c3cc4c(cc3C2=O)CN(CC(=O)N2CCC3(CC2)CCN(c2ccc(C(=C(CCCl)c5ccccc5)c5ccc(B(O)O)cc5)cc2)CC3)C4)C(=O)N1 (stereo not drawn) [E 197, (4-(4-chloro-1-(4-(9-(2-(6-(2,6-dioxopiperidin-3-yl)-5,7-dioxo-3,5,6,7-tetrahydropyrrolo[3,4-f]isoindol-2(1H)-yl)acetyl)-3,9-diazaspiro[5.5]undecan-3-yl)phenyl)-2-phenylbut-1-en-1-yl)phenyl)boronic acid]	10 to 100
O=C1CCC(N2C(=O)c3cc4c(cc3C2=O)CN(C(=O)CN2CCC3(CC2)CCN(c2ccc(C(=C(CCCl)c5ccccc5)c5ccc(B(O)O)cc5)cc2)CC3)C4)C(=O)N1 (stereo not drawn) [E 198, (4-(4-chloro-1-(4-(9-(2-(6-(2,6-dioxopiperidin-3-yl)-5,7-dioxo-3,5,6,7-tetrahydropyrrolo[3,4-f]isoindol-2(1H)-yl)-2-oxoethyl)-3,9-diazaspiro[5.5]undecan-3-yl)phenyl)-2-phenylbut-1-en-1-yl)phenyl)boronic acid]	10 to 100
O=C1CCC(N2C(=O)c3cc4c(cc3C2=O)CN(CC2CN(C(=O)C3CN(c5ccc([C@@H]6c7ccc(O)cc7CC[C@@H]6c6ccccc6)cc5)C3)C2)C4)C(=O)N1 (stereo partly drawn) [E 200, 2-(2,6-dioxopiperidin-3-yl)-6-((1-(1-(4-((1R,2S)-6-hydroxy-2-phenyl-1,2,3,4-tetrahydronaphthalen-1-yl)phenyl)azetidine-3-carbonyl)azetidin-3-yl)methyl)-6,7-dihydropyrrolo[3,4-f]isoindole-1,3(2H,5H)-dione]	> 100
O=C1CCC(N2C(=O)c3cc4c(cc3C2=O)CN(CC2(F)CCN(C(=O)C3(F)CN(c5ccc([C@@H]6c7ccc(O)cc7CC[C@@H]6c6ccccc6)cc5)C3)CC2)C4)C(=O)N1 (stereo partly drawn) [E 202, 2-(2,6-dioxopiperidin-3-yl)-6-((4-fluoro-1-(3-fluoro-1-(4-((1R,2S)-6-hydroxy-2-phenyl-1,2,3,4-tetrahydronaphthalen-1-yl)phenyl)azetidine-3-carbonyl)piperidin-4-yl)methyl)-6,7-dihydropyrrolo[3,4-f]isoindole-1,3(2H,5H)-dione]	> 100
O=C1CCC(N2C(=O)c3cc4c(cc3C2=O)CN(CC2CCN(C(=O)C3(F)CN(c5ccc([C@@H]6c7ccc(O)cc7CC[C@@H]6c6ccccc6)cc5)C3)CC2)C4)C(=O)N1 (stereo partly drawn) [E 203, 2-(2,6-dioxopiperidin-3-yl)-6-((1-(3-fluoro-1-(4-((1R,2S)-6-hydroxy-2-phenyl-1,2,3,4-tetrahydronaphthalen-1-yl)phenyl)azetidine-3-carbonyl)piperidin-4-yl)methyl)-6,7-dihydropyrrolo[3,4-f]isoindole-1,3(2H,5H)-dione]	> 100

More lines, now with the values ahead:

DC50 [nM]	SMILES
10 to 100	O=C1CCC(N2C(=O)c3cc4c(cc3C2=O)CN(CC(=O)N2CCC3(CC2)CCN(c2ccc([C@@H]5c6ccc(O)cc6CC[C@@H]5c5ccc(F)cc5)cc2)C3)C4)C(=O)N1 (stereo partly drawn) [E 186, 2-(2,6-dioxopiperidin-3-yl)-6-(2-(2-(4-((1R,2S)-2-(4-fluorophenyl)-6-hydroxy-1,2,3,4-tetrahydronaphthalen-1-yl)phenyl)-2,8-diazaspiro[4.5]decan-8-yl)-2-oxoethyl)-6,7-dihydropyrrolo[3,4-f]isoindole-1,3(2H,5H)-dione]
10 to 100	CCC(=C(c1ccc(O)cc1)c1ccc(N2CCC3(CCN(C(=O)CN4Cc5cc6c(cc5C4)C(=O)N(C4CCC(=O)NC4=O)C6=O)CC3)C2)cc1)c1ccccc1 (stereo not drawn) [E 189, 2-(2,6-dioxopiperidin-3-yl)-6-(2-(2-(4-(1-(4-hydroxyphenyl)-2-phenylbut-1-en-1-yl)phenyl)-2,8-diazaspiro[4.5]decan-8-yl)-2-oxoethyl)-6,7-dihydropyrrolo[3,4-f]isoindole-1,3(2H,5H)-dione]
10 to 100	O=C1CCC(N2C(=O)c3cc4c(cc3C2=O)CN(C(=O)CN2CCC3(CC2)CCN(c2ccc(C(=C(CCCl)c5ccccc5)c5ccc(O)cc5)cc2)C3)C4)C(=O)N1 (stereo not drawn) [E 191, 6-(2-(2-(4-(4-chloro-1-(4-hydroxyphenyl)-2-phenylbut-1-en-1-yl)phenyl)-2,8-diazaspiro[4.5]decan-8-yl)acetyl)-2-(2,6-dioxopiperidin-3-yl)-6,7-dihydropyrrolo[3,4-f]isoindole-1,3(2H,5H)-dione]
10 to 100	CCC(=C(c1ccc(O)cc1)c1ccc(N2CCC3(CCN(CC(=O)N4Cc5cc6c(cc5C4)C(=O)N(C4CCC(=O)NC4=O)C6=O)CC3)C2)cc1)c1ccccc1 (stereo not drawn) [E 192, 2-(2,6-dioxopiperidin-3-yl)-6-(2-(2-(4-(1-(4-hydroxyphenyl)-2-phenylbut-1-en-1-yl)phenyl)-2,8-diazaspiro[4.5]decan-8-yl)acetyl)-6,7-dihydropyrrolo[3,4-f]isoindole-1,3(2H,5H)-dione]
10 to 100	O=C1CCC(N2C(=O)c3cc4c(cc3C2=O)CN(CC(=O)N2CCC3(CC2)CCN(c2ccc(C(=C(CCCl)c5ccc(F)cc5)c5ccc(O)cc5)cc2)CC3)CC4)C(=O)N1 (stereo not drawn) [E 193]
10 to 100	CCC(=C(c1ccc(O)cc1)c1ccc(N2CCC3(CC2)CN(C(=O)CN2CCc4cc5c(cc4C2)C(=O)N(C2CCC(=O)NC2=O)C5=O)C3)cc1)c1ccccc1 (stereo not drawn) [E 194, 2-(2,6-dioxopiperidin-3-yl)-6-(2-(7-(4-(1-(4-hydroxyphenyl)-2-phenylbut-1-en-1-yl)phenyl)-2,7-diazaspiro[3.5]nonan-2-yl)-2-oxoethyl)-5,6,7,8-tetrahydro-1H-pyrrolo[3,4-g]isoquinoline-1,3(2H)-dione]
> 100	O=C1CCC(N2C(=O)c3cc4c(cc3C2=O)CN(CC2(F)CCN(C(=O)C3CN(c5ccc([C@@H]6c7ccc(O)cc7CC[C@@H]6c6ccccc6)cc5)C3)CC2)C4)C(=O)N1 (stereo partly drawn) [E 199, 2-(2,6-dioxopiperidin-3-yl)-6-((4-fluoro-1-(1-(4-((1R,2S)-6-hydroxy-2-phenyl-1,2,3,4-tetrahydronaphthalen-1-yl)phenyl)azetidine-3-carbonyl)piperidin-4-yl)methyl)-6,7-dihydropyrrolo[3,4-f]isoindole-1,3(2H,5H)-dione]
> 100	O=C1CCC(N2C(=O)c3cc4c(cc3C2=O)CN(CC2CCN(C(=O)C3CN(c5ccc([C@@H]6c7ccc(O)cc7CC[C@@H]6c6ccccc6)cc5)C3)CC2)C4)C(=O)N1 (stereo partly drawn) [E 201, 2-(2,6-dioxopiperidin-3-yl)-6-((1-(1-(4-((1R,2S)-6-hydroxy-2-phenyl-1,2,3,4-tetrahydronaphthalen-1-yl)phenyl)azetidine-3-carbonyl)piperidin-4-yl)methyl)-6,7-dihydropyrrolo[3,4-f]isoindole-1,3(2H,5H)-dione]
